The values below come from PubChem BioAssay (NCI).

What all share (test): inhibition of tumour cell growth, NCI panel, 48 h
The test system of assay [1] is SF-268 CNS.
For assay [2], the system named is SF-295 CNS.
In assay [3] the test system is T-47D breast.
Assay [4] relates to HOP-92 NSCLC.

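These data come from cells grown in 96-well plates and exposed to compound for 48 hours at five concentrations. TGI is the concentration that stops growth completely.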

Regarding `O=[N+]([O-])c1ccc2c(c1)c(OCc1ccccc1)nn2Cc1ccccc1`, the TGI in assay [1], in assay [2] and in assay [3] was > 100 µM in each case.

Take `COC(=O)c1ccccc1CC1Cc2ccc3c(c2C1=O)CCCC3` (stereo not drawn): the values for the TGI in assay [1], in assay [2] and in assay [3] were > 100 µM, > 100 µM and > 78.1 µM, respectively.

Take `c1csc(-c2ccc(-c3cccc4nsnc34)s2)c1`: the TGI in assay [1], in assay [2] and in assay [3] was > 100 µM in each case.

Regarding `COc1ccc(-c2c(C#N)c(-c3ccc(C)cc3)n(NS(=O)(=O)c3ccc(C)cc3)c(=O)c2C#N)cc1`, the TGI in assay [1], in assay [4] and in assay [2] was > 100 µM in each case.

As to `Cc1ccc(-c2n[nH]c(=O)n2N2C(=O)c3ccccc3C2=O)cc1`, the TGI in assay [1], in assay [2] and in assay [3] was > 100 µM in each case.

Consider `CCOC(=O)CSc1c(C(=O)OCC)c(=O)n(-c2ccccc2)c(=S)n1-c1ccccc1`, for which the TGI was > 100 µM in assay [1], 20.6 µM in assay [4], > 100 µM in assay [2] and > 100 µM in assay [3].

Turning to `O=C1/C(=C/c2ccccc2)N=C2Sc3c(nc[nH]c3=O)N12`, the TGI in assay [1], in assay [4], in assay [2] and in assay [3] was > 100 µM each time.

Regarding `Cc1cc(Cc2cc(C)c(N)cc2N)c(N)cc1N`, the TGI in assay [1], in assay [2] and in assay [3] was > 100 µM each time.

For the compound `CCOC(=O)C1(C/C=C/CBr)Cc2ccccc2C1=O` (stereo not drawn), the values for the TGI in assay [1], in assay [2] and in assay [3] were 10 µM, 22.1 µM and 12.2 µM, respectively.

As for `COC(=O)C1SC(SC)=NC12c1ccccc1Nc1ccccc12` (stereo not drawn), the TGI was > 100 µM in assay [1], 69.8 µM in assay [4], > 100 µM in assay [2] and > 100 µM in assay [3].

As to `Cc1ccc(Cl)c2[nH]c(-c3ccccc3)cc(=O)c12`, the TGI in assay [1] was 79.7 µM; in assay [2], > 100 µM; in assay [3] it was > 100 µM.

Consider `CC1(C)OC(=O)N(c2ccccc2)C12C=Cc1cc([N+](=O)[O-])cc([N+](=O)[O-])c1O2` (stereo not drawn), for which the TGI in assay [1], in assay [4], in assay [2] and in assay [3] was > 100 µM each time.

`CC(C)(C)OC(=O)N[C@H]1CCN(C2CCCCC2)C1=O`: the TGI in assay [1] and in assay [4] was > 100 µM in each case.

Regarding `COc1ccc(COCCOCc2nc(C#N)c(N)o2)cc1`, the TGI in assay [1], in assay [4], in assay [2] and in assay [3] was > 100 µM each time.

On to `O=c1c2cc([N+](=O)[O-])cnc2sn1-c1ccc([N+](=O)[O-])cc1`, for which the TGI in assay [1] was 67.6 µM; in assay [2] it was > 100 µM; in assay [3], 83.6 µM.

For the compound `N#Cc1c(N2CCCC2)ncn(-c2ccccc2)c1=O`, the TGI in assay [1], in assay [4], in assay [2] and in assay [3] was > 100 µM in each case.

With `COc1ccc(C2CC(c3c(O)ccc4ccccc34)=NN2C(C)=O)cc1OC` (stereo not drawn), the TGI in assay [1], in assay [4], in assay [2] and in assay [3] was > 100 µM in each case.

Take `O=c1[nH]c(Nc2cccc(CC(F)(F)F)c2)nc2nc[nH]c12`: the TGI in assay [1], in assay [4], in assay [2] and in assay [3] was > 100 µM throughout.

As to `Cc1ccc(C(=O)O)cc1S(=O)(=O)Nn1cnc2ccc(S(=O)(=O)Nc3ccccc3C(=O)O)cc2c1=O`, the TGI in assay [1], in assay [4] and in assay [2] was > 100 µM in each case.

As to `S=C1Nc2ccccc2SC1c1ccccc1` (stereo not drawn), the TGI in assay [1], in assay [2] and in assay [3] was > 100 µM throughout.

In the case of `CCOC(=O)c1cn2c(n1)sc1cccc(C)c12`, the TGI in assay [1] and in assay [2] was > 100 µM in each case.

As for `CCCCCCCCCCCCCCNC(=O)CCC(NC(=O)c1ccc(N(C)Cc2cnc3nc(N)nc(N)c3n2)cc1)C(=O)NCCCCCCCCCCCCCC` (stereo not drawn), the TGI was 22.4 µM in assay [1], 63.8 µM in assay [4], 28.9 µM in assay [2] and 38.5 µM in assay [3].

For `COC(=O)C([C@H](NC1(c2ccccc2)c2ccccc2-c2ccccc21)C(=O)OC)N(NC(=O)OCc1ccccc1)C(=O)OCc1ccccc1` (mixture of isomers), the TGI in assay [1], in assay [4], in assay [2] and in assay [3] was > 100 µM in each case.

Take `CC[C@@H]1CC[C@@H]2[C@H](CC[C@]3(C)[C@@H](OC(C)=O)CC[C@@H]23)[C@H]1COC(C)=O`: the TGI in assay [1] was 92.5 µM; in assay [4] it was 69.8 µM; in assay [2] it was 65.1 µM; in assay [3] it was > 100 µM.

With `CC(C)(C)N1CSC(=S)N(Cc2ccco2)C1`, the TGI was found to be 15.1 µM in assay [1], 12.1 µM in assay [4], 31.5 µM in assay [2] and 46.4 µM in assay [3].

Take `CC(=O)O[C@@H]1[C@H](C(C)C)[C@@H](OC(C)=O)C/C(C)=C/CC[C@]2(C)O[C@@H]12`: the TGI in assay [1], in assay [4], in assay [2] and in assay [3] was > 100 µM in each case.

Take `COc1cc2nc3n(c(=O)c2cc1OC)-c1ccc([N+](=O)[O-])cc1C3=O`: the TGI in assay [1], in assay [4], in assay [2] and in assay [3] was > 100 µM in each case.
